Laboratory results reported in US20250281489A1, “BIOMARKERS FOR PREDICTING SENSITIVITY TO CANCER TREATMENTS” (Genentech, Inc., priority 2011, published 2025).

What was measured:
pPRAS40 = experiment: reverse phase protein arrays of tumor biopsies from patients: pPRAS40; format: in vivo, human; conditions: all 3 patients treated at 400 mg daily
Description: (§1) Core-needle tumor biopsies from patients treated with GDCC0068 were flash-frozen in OCT and sectioned into 8 um slices. Tissue was lysed in RPPA lysis buffer containing TPER, 300 mM NaCl and phosphatase inhibitors. Phosphoprotein signatures of the lysates were analysed using Reverse-Phase protein arrays: samples were printed on nitrocellulose slides and stained with Sypro to determine total protein concentrations. Each slide was stained with a different antibody at 4° C. overnight. The data was then normalized to total protein levels and spatial effects were removed using Quadrant median normalization. Decreases of 60%-70% in pPRAS40 and ˜50% decrease in Cyclin D1 (compared with baseline) occurred in all 3 patients treated at 400 mg daily. For methods and overview of RPPA see: Reverse phase protein microarrays advance to use in clinical trials, Molecular Oncology. 2010 December; 4(6):461-81, Mueller C et al. In certain embodiments, the cancer to be treated herein comprises one or more of AKT, PI3k, PTEN and HER2 mutations or AKT, PI3k, PTEN or HER2 abberant signaling. In one example, the cancer is gastric cancer comprising high pAKT activity and PTEN low or null status.

Cyclin D1 = experiment: reverse phase protein arrays of tumor biopsies from patients: Cyclin D1; format: in vivo, human; conditions: all 3 patients treated at 400 mg daily
Description: as §1

xenograft models = experiment: single agent activity in xenograft models; format: in vivo; conditions: models with AKT pathway activation and without MEK pathway activation
pGSK-3β = experiment: surrogate PD biomarker assay: phospho-GSK-3β in platelet rich plasma of patients; format: in vivo, human; conditions: doses≥200 mg, ratio to pre-dose
Description: Phospho-GSK-3b in Platelet rich plasma (PRP) was used as a surrogate PD biomarker to measure Akt pathway inhibition in patients after treatment with GDC-0068 at different time points over 22 days. Peripheral blood was collected in Vacutainer containing 0.38% of citrate as anti-coagulant. Blood was spun at 200 g for 15 min at room temperature. The PRP layer was carefully taken from the tube and then lysed in a buffer containing detergents, protease and phosphatase inhibitors. Phosphorylated and total GSK-3β levels in PRP lysates were measured using a phospho-GSK3β/total-GSK30 multiplexed MSD assay. pGSk-3β levels were normalized to total GSk-3β levels and post-dose inhibition of pGSk-3β was expressed as a ratio of the pre-dose levels for each patient.

[1] = combo screens with 5FU/Cisplatin; format: cell-based; conditions: combination with Cisplatin+5FU; associated with PTEN, pAKT, PI3K mutation
From the text: FIG. 15 depicts results that the combination effects of GDC-0068 with Cisplatin+5FU are associated with AKT pathway activation.

[2] = tested on: cell lines with AKT pathway activation (PTEN loss, PI3K mutations); experiment: combination with MEK inhibitor in cell lines, BLISS analysis; format: cell-based; conditions: in combination with a MEK inhibitor (GDC-0973)
From the text: BLISS analysis indicates broad synergy for GDC-0068 in combination with a MEK inhibitor (GDC-0973).

WT AKT1 enzyme = target: T1, WT AKT1 enzyme (Homo sapiens, UniProt P31749); experiment: biochemical activity assay, recombinant full-length WT AKT1 enzyme; conditions: in words
T1 construct: were tested on recombinant full-length WT and mutant AKT1 enzymes
From the text: Several ATP-competitive and allosteric small molecule inhibitors of AKT are in development and/or clinical trials (Mattmann et al., (2011). Expert Opin Ther Pat.; Pal et al., (2010). Expert Opin Investig Drugs 19, 1355-1366).

[3] = tested on: mutant AKT1 enzymes (E17K, L52R and D323H); experiment: biochemical activity assay, recombinant full-length mutant AKT1 enzymes; conditions: in words
From the text: (§2) Several ATP-competitive and allosteric small molecule inhibitors of AKT are in development and/or clinical trials (Mattmann et al., (2011). Expert Opin Ther Pat.; Pal et al., (2010). Expert Opin Investig Drugs 19, 1355-1366). Previous studies have shown that allosteric inhibitors of AKT require the presence of an intact PH-KD interface for their activity. Given that some AKT1 somatic mutants have impaired PH-KD contacts, it was predicted that allosteric inhibitors are likely to be less efficacious in inhibiting the activity of these mutants.

[4] = tested on: NIH3T3 cells expressing WT or AKT1 mutants; experiment: cell based proliferation assay, NIH3T3 cells expressing WT or AKT1 mutants
From the text: as §2

[5] = tested on: AKT1 kinase domain reconstituted with WT PH domain; experiment: in vitro biochemical reconstitution assay, WT PH domain added to kinase domain
Description: (§3) To confirm that the reduced sensitivity of the mutants to allosteric inhibitors was due to the impaired PH-KD interactions, an in vitro biochemical reconstitution assay was performed using purified recombinant PH and kinase domains.

AKT1 kinase domain alone = target: T2, AKT1 kinase domain alone (Homo sapiens, UniProt P31749); experiment: in vitro biochemical assay, AKT1 kinase domain alone; conditions: purified recombinant kinase domain, no PH domain
T2 construct: using purified recombinant PH and kinase domains
Description: as §3

[6] = target: T3, WT PH domain reconstituted with mutant D323H kinase domain (Homo sapiens, UniProt P31749, D323H); experiment: in vitro biochemical reconstitution assay, WT PH domain with D323H kinase domain; conditions: in words
T3 construct: using purified recombinant PH and kinase domains
Description: as §3

T3 sequence (P31749 150-408 D323H limits assumed): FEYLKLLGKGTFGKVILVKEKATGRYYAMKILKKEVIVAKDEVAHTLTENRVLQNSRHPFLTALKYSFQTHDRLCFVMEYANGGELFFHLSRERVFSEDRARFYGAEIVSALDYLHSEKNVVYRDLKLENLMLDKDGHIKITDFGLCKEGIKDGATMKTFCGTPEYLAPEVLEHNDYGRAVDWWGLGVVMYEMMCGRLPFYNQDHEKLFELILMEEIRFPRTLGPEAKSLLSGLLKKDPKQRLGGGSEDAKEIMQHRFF
T2 sequence (P31749 150-408 limits assumed): as the sequence (P31749 150-408 D323H limits assumed) above, with H174D counted along it
T1 sequence (P31749 whole entry): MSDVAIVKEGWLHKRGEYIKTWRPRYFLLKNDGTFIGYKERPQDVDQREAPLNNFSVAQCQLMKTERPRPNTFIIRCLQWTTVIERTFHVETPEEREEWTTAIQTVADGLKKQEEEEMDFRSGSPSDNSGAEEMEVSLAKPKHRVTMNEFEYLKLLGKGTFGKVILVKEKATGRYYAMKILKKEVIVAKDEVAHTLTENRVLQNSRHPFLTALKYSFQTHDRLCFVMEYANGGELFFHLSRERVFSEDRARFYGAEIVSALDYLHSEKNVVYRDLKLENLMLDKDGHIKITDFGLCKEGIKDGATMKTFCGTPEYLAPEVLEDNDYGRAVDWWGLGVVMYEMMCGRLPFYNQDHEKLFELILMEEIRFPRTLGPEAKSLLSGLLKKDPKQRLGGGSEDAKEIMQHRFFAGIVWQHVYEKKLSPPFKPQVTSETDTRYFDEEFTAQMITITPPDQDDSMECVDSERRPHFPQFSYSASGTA

CC(C)NC[C@@H](C(=O)N1CCN(c2ncnc3c2[C@H](C)C[C@H]3O)CC1)c1ccc(Cl)cc1 [GDC-0068]
decrease in pPRAS40 compared with baseline (pPRAS40): 60%-70% | decrease in Cyclin D1 compared with baseline (Cyclin D1): ~50% | single agent efficacy in xenograft models (xenograft models): Robust efficacy | decrease in pGSK3β level (pGSK-3β): ≥ 75% | combination effect [1]: additive effects | combination effect, BLISS analysis [2]: broad synergy

CCn1c(-c2nonc2N)nc2c(C#CC(C)(C)O)ncc(OC[C@H]3CCCNC3)c21 [GSK690693]
blocking the activity of the WT AKT1 enzyme (WT AKT1 enzyme): effective | blocking the activity of the mutant enzymes ([3]; E17K, L52R and D323H): effective

O=c1[nH]c2ccccc2n1C1CCN(Cc2ccc(-c3nc4cc5[nH]cnc5cc4nc3-c3ccccc3)cc2)CC1 [Inhibitor VIII]
less effective at blocking proliferation of cells expressing mutant AKT1 compared to WT AKT [4]: at least 50% | increase in IC50 for the reconstituted enzyme compared to the full length WT enzyme [5]: three fold | IC50 ([5]; reconstituted enzyme, WT PH domain + kinase domain): 239 nM | blocking activity of AKT1 kinase domain alone (AKT1 kinase domain alone): unable to block its activity | activity when WT PH domain was reconstituted with mutant D323H kinase domain [6]: no activity

NC(=O)[C@@H]1CCCCN1CCCN(C(=O)c1cccs1)c1nc(-c2ccncc2)cs1 [GNE-929]
effectiveness against recombinant full-length mutant enzymes compared to WT AKT1 [3]: less effective
